Data: publication PMC3986099, “Development of a Radioiodinated Triazolopyrimidine Probe for Nuclear Medical Imaging of Fatty Acid Binding Protein 4” (PLoS ONE, 2014)

Assays:
[1] = Partition coefficient, 1-octanol/phosphate buffer pH 7.4; type: physicochemical; conditions: 1-octanol/phosphate buffer (PBS(-))
Procedure: Experimental determination of the [^125I]TAP1 partition coefficient was performed with 1-octanol and phosphate buffer at pH 7.4. The two phases were pre-saturated, and a mixture solution of 3.0 ml 1-octanol and 3.0 ml PBS (-) was added to a tube containing 0.02 ml [^125I]TAP1 in PBS (-) (0.024 MBq, 5% ethanol, v/v). The test tube was vortexed and centrifuged (1,000×g, 5 min). Aliquots from the 1-octanol and buffer phases (0.5 ml) were counted with a well-type γ-counter. This procedure was repeated three times. The partition coefficient was calculated from the ratio of radioactivity in the organic and aqueous layers.

[2] = In vitro stability in saline and plasma (RP-HPLC); type: in vitro ADME, ddY mice; conditions: 2 hr, 37 °C
Procedure: The in vitro stability of [^125I]TAP1 in plasma was measured using plasma samples taken from ddY mice (males, 7 weeks old). [^125I]TAP1 (0.07 MBq, 0.01 ml) was incubated with 0.1 ml plasma at 37 °C for 2 hr. After addition of 0.2 ml methanol and vortexing, the mixture was centrifuged (4,160×g, 10 min). The supernatant was filtered with a low protein binding hydrophilic PTFE membrane (Millex-LH MILLIPORE), and the filtrate was analyzed by RP-HPLC using a Cosmosil C18 column with an isocratic solvent of H2O (0.1% TFA, v/v)/acetonitrile (0.1% TFA, v/v) (37/63) at a flow rate of 1.5 ml/min.

[3] = Serum protein binding by rapid equilibrium dialysis; type: in vitro ADME; conditions: mouse plasma, 37 °C, 4 hr
Procedure: The serum protein binding ratio of [^125I]TAP1 was measured using rapid equilibrium dialysis (RED) devices (Thermo Fisher Scientific K.K.) following the manufacturer's procedures. Briefly, [^125I]TAP1 (0.02 MBq, 0.02 ml) and mouse plasma (0.3 ml) were mixed and placed to the sample chamber and 0.5 ml PBS (-) was placed in the RED device buffer chamber. After incubation at 37 °C for 4 hr, 0.05 ml of the samples were obtained from each chamber. The binding ratios were calculated as: (sample chamber radioactivity)-(buffer chamber radioactivity)/(sample chamber radioactivity) x 100 (%).

[4] = Biodistribution in normal mice; type: in vivo, ddY mice; conditions: for Blood / Heart / Intestine / Kidney / Liver / Lung / Muscle / Pancreas / Spleen / Stomach / Thyroid gland: normal mice, i.v.
Procedure: A saline solution (5% ethanol, v/v) of [^125I]TAP1 (0.035 MBq) was injected intravenously into the tail vein of ddY mice (males, 5 weeks old). The mice were sacrificed at various post-injection time points, and the organs of interest were removed. The organ weights were determined, and the radioactivity in the organs was measured with a well-type γ-counter.

logP [1]: 2.7 ± 0.1
percentage bound to serum proteins [3]: more than 99%
stability against deiodination in vivo ([4]; low radioactivity in stomach and thyroid gland): stable against deiodination
Blood ([4]; 5 min): 3.25±0.20 % injected dose per gram
Heart ([4]; 5 min): 1.59±0.54 % injected dose per gram
Intestine ([4]; 5 min): 2.21±1.43 % injected dose per gram
Kidney ([4]; 5 min): 15.30±9.93 % injected dose per gram
Liver ([4]; 5 min): 57.51±4.79 % injected dose per gram
Lung ([4]; 5 min): 3.12±1.11 % injected dose per gram
Muscle ([4]; 5 min): 0.73±0.51 % injected dose per gram
Pancreas ([4]; 5 min): 1.53±0.84 % injected dose per gram
Spleen ([4]; 5 min): 1.54±0.60 % injected dose per gram
Stomach ([4]; 5 min): 0.40±0.14 % injected dose per organ
Thyroid gland ([4]; 5 min): 0.01±0.005 % injected dose per organ
Blood ([4]; 15 min): 3.91±0.75 % injected dose per gram
Heart ([4]; 15 min): 1.57±0.51 % injected dose per gram
Intestine ([4]; 15 min): 2.21±0.72 % injected dose per gram
Kidney ([4]; 15 min): 32.89±11.78 % injected dose per gram
Liver ([4]; 15 min): 47.58±2.57 % injected dose per gram
Lung ([4]; 15 min): 2.88±0.65 % injected dose per gram
Muscle ([4]; 15 min): 0.83±0.09 % injected dose per gram
Pancreas ([4]; 15 min): 1.23±0.26 % injected dose per gram
Spleen ([4]; 15 min): 1.84±0.43 % injected dose per gram
Stomach ([4]; 15 min): 0.76±0.14 % injected dose per organ
Thyroid gland ([4]; 15 min): 0.03±0.01 % injected dose per organ
Blood ([4]; 30 min): 3.45±0.41 % injected dose per gram
Heart ([4]; 30 min): 1.39±0.25 % injected dose per gram
Intestine ([4]; 30 min): 3.83±0.07 % injected dose per gram
Kidney ([4]; 30 min): 45.34±3.34 % injected dose per gram
Liver ([4]; 30 min): 50.91±7.27 % injected dose per gram
Lung ([4]; 30 min): 2.76±0.49 % injected dose per gram
Muscle ([4]; 30 min): 0.67±0.16 % injected dose per gram
Pancreas ([4]; 30 min): 0.89±0.12 % injected dose per gram
Spleen ([4]; 30 min): 1.29±0.13 % injected dose per gram
Stomach ([4]; 30 min): 0.92±0.21 % injected dose per organ
Thyroid gland ([4]; 30 min): 0.03±0.01 % injected dose per organ
Blood ([4]; 60 min): 2.02±0.35 % injected dose per gram
Heart ([4]; 60 min): 0.96±0.32 % injected dose per gram
Intestine ([4]; 60 min): 5.10±1.43 % injected dose per gram
Kidney ([4]; 60 min): 45.89±13.85 % injected dose per gram
Liver ([4]; 60 min): 46.70±4.43 % injected dose per gram
Lung ([4]; 60 min): 1.93±0.91 % injected dose per gram
Muscle ([4]; 60 min): 0.64±0.20 % injected dose per gram
Pancreas ([4]; 60 min): 1.46±0.55 % injected dose per gram
Spleen ([4]; 60 min): 1.14±0.38 % injected dose per gram
Stomach ([4]; 60 min): 1.40±0.69 % injected dose per organ
Thyroid gland ([4]; 60 min): 0.02±0.08 % injected dose per organ
Blood ([4]; 120 min): 1.72±0.49 % injected dose per gram
Heart ([4]; 120 min): 1.11±0.23 % injected dose per gram
Intestine ([4]; 120 min): 10.58±1.93 % injected dose per gram
Kidney ([4]; 120 min): 50.84±18.75 % injected dose per gram
Liver ([4]; 120 min): 31.00±1.52 % injected dose per gram
Lung ([4]; 120 min): 1.46±0.13 % injected dose per gram
Muscle ([4]; 120 min): 0.71±0.24 % injected dose per gram
Pancreas ([4]; 120 min): 0.64±0.1 % injected dose per gram
Spleen ([4]; 120 min): 1.44±1.21 % injected dose per gram
Stomach ([4]; 120 min): 2.02±0.70 % injected dose per organ
Thyroid gland ([4]; 120 min): 0.14±0.21 % injected dose per organ
SMILES: O=c1cc(COc2cccc([125I])c2)[nH]c2nc(-c3ccccc3)nn12 [[^125I]TAP1]
stability in mouse plasma ([2]; mouse plasma): no radioactive degradation products were observed
stability in saline ([2]; saline): no radioactive degradation products were observed
